For 29 compounds, IC50 results are on record in patent US9796706B2, “Inhibitors of Jun N-terminal kinase” (IMAGO PHARMACEUTICALS, INC., priority 2009, dated 2017).

Some results are limits rather than exact numbers.

Format in all cases: biochemical
What all share (settings): procedures of Example 14 (TR-FRET)

Test [1] deals with JNK2 (Homo sapiens (Human), UniProt P45984). Put plainly: JNK2 TR-FRET kinase assay (Example 14). The method in brief:
(§1)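 Two TR-FRET formats were used for each JNK isoform. In the direct one, preactivated aJNK phosphorylated EPIW-1 at about 1 mM final ATP (RT, 15 min). Both were EDTA-quenched and read by HTRF.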

In test [2] the target is JNK1 (Homo sapiens (Human), UniProt P45983). Put plainly: JNK1 TR-FRET kinase assay (Example 14). The essentials: as §1
In general terms: Time-resolved FRET reads energy transfer from a long-lived donor to a nearby acceptor.

Test [3] addresses JNK3 (Homo sapiens (Human), UniProt P53779). Briefly: JNK3 TR-FRET kinase assay (Example 14). The essentials:
as §1

Chain of JNK2 (P45984 whole entry, species assumed, canonical isoform): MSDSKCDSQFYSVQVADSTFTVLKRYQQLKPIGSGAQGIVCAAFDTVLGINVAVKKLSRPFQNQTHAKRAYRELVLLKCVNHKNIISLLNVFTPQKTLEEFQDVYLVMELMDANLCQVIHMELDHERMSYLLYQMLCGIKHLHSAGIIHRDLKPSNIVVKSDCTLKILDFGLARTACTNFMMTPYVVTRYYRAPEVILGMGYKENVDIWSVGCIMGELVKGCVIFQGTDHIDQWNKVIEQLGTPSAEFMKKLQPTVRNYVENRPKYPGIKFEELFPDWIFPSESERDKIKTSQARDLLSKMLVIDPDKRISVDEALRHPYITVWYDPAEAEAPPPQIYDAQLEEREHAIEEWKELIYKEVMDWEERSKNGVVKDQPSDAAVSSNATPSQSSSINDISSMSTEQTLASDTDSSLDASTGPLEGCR
Chain of JNK1 (P45983 other isoform, or with tags, fused parts or gaps isoform P45983-2, species assumed): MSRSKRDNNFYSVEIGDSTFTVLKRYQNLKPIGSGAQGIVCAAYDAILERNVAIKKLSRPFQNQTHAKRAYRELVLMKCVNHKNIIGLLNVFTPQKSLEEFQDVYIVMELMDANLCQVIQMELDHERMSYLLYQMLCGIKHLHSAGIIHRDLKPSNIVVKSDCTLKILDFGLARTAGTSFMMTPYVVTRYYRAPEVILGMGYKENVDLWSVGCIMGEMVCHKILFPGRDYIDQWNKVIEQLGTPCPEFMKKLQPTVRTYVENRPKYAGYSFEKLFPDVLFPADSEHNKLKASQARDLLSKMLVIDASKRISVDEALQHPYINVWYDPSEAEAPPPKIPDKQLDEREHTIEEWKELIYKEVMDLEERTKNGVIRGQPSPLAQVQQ
Chain of JNK3 (P53779 whole entry, species assumed): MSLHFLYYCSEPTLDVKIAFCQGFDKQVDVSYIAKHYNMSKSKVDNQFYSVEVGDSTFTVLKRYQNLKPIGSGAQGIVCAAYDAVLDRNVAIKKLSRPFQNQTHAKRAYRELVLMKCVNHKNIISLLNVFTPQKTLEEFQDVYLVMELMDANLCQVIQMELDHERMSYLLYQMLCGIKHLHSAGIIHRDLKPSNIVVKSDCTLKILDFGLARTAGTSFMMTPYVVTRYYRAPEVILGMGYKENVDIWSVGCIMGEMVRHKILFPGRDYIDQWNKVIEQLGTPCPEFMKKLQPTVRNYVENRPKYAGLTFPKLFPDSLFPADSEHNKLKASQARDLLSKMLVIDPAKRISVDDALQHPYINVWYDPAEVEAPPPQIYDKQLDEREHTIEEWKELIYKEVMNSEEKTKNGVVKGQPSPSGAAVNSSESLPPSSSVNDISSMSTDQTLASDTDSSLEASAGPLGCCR

As to `O=C(Cn1c(=O)ccn2nc(C(F)(F)F)cc12)Nc1scc(Cl)c1-c1ncn[nH]1` [N-(4-chloro-3-(1H-1,2,4-triazol-5-yl)thiophen-2-yl)-2-(5-oxo-2-(trifluoromethyl)pyrazolo[1,5-a]pyrimidin-4(5H)-yl)acetamide], the IC50 in test [1], in test [2] and in test [3] was less than 100 nM in each case.
With `O=C(Cn1c(=O)ccc2cc(F)c(F)cc21)Nc1sccc1-c1ncon1` [N-(3-(1,2,4-oxadiazol-3-yl)thiophen-2-yl)-2-(6,7-difluoro-2-oxoquinolin-1(2H)-yl)acetamide], the IC50 in test [1] was 100 to 10000 nM; in test [2], less than 100 nM; in test [3], 100 to 10000 nM.
For `O=C(CN1C(=O)CCc2ncccc21)Nc1scc(Cl)c1-c1nccs1` [N-(4-chloro-3-(thiazol-2-yl)thiophen-2-yl)-2-(2-oxo-3,4-dihydro-1,5-naphthyridin-1(2H)-yl)acetamide], the IC50 in test [1], in test [2] and in test [3] was less than 100 nM throughout.
For `Cc1nc(-c2sccc2NC(=O)Cc2cccc3ccccc23)n(C)n1` [N-(2-(1,3-dimethyl-1H-1,2,4-triazol-5-yl)thiophen-3-yl)-2-(naphthalen-1-yl)acetamide], the results for the IC50 in test [1], in test [2] and in test [3] were greater than 50000 nM, greater than 10000 nM and greater than 10000 nM, respectively.
`O=C(Cn1c(=O)ccc2cc(F)ccc21)Nc1scc(Br)c1-c1ncn[nH]1` [N-(4-bromo-3-(1H-1,2,4-triazol-5-yl)thiophen-2-yl)-2-(6-fluoro-2-oxoquinolin-1(2H)-yl)acetamide]: the IC50 in test [1], in test [2] and in test [3] was less than 100 nM in each case.
With `Cc1nnc(-c2sccc2NC(=O)Cc2cccc3ccccc23)o1` [N-(2-(5-methyl-1,3,4-oxadiazol-2-yl)thiophen-3-yl)-2-(naphthalen-1-yl)acetamide], the IC50 in test [1] is greater than 10000 nM; in test [2], 100 to 10000 nM; in test [3], 100 to 10000 nM.
With `Cc1csc(NC(=O)Cc2cccc3cnccc23)c1-c1nc2ccccc2s1` [N-(3-(benzo[d]thiazol-2-yl)-4-methylthiophen-2-yl)-2-(isoquinolin-5-yl)acetamide], the IC50 in test [1] is greater than 10000 nM; in test [2] it was 100 to 10000 nM; in test [3] it was 100 to 10000 nM.
As to `O=C(Cn1c(=O)ccc2cc(C(F)(F)F)ccc21)Nc1scc(Cl)c1-c1ncn[nH]1` [N-(4-chloro-3-(1H-1,2,4-triazol-5-yl)thiophen-2-yl)-2-(2-oxo-6-(trifluoromethyl)quinolin-1(2H)-yl)acetamide], the half-maximal inhibitory concentration (IC50) in test [1], in test [2] and in test [3] was less than 100 nM each time.
Turning to `Cc1n[nH]c(-c2c(C)csc2NC(=O)Cc2cccc3ncccc23)n1` [N-(4-methyl-3-(3-methyl-1H-1,2,4-triazol-5-yl)thiophen-2-yl)-2-(quinolin-5-yl)acetamide], the IC50 in test [1] was 100 to 10000 nM; in test [2], less than 100 nM; in test [3], less than 100 nM.
With `O=C(Cc1cc(C(F)(F)F)cc2ncccc12)Nc1scc(Br)c1-c1nnc[nH]1` [N-(4-bromo-3-(4H-1,2,4-triazol-3-yl)thiophen-2-yl)-2-(7-(trifluoromethyl)quinolin-5-yl)acetamide], the IC50 in test [1], in test [2] and in test [3] was 100 to 10000 nM in each case.
As for `Cn1ncnc1-c1sccc1NC(=O)Cc1cccc2ccccc12` [N-(2-(1-methyl-1H-1,2,4-triazol-5-yl)thiophen-3-yl)-2-(naphthalen-1-yl)acetamide], the IC50 in test [1], in test [2] and in test [3] was greater than 50000 nM each time.
`Cn1cnc(-c2c(Cl)csc2NC(=O)CN2C(=O)CCc3ncccc32)n1` [N-(4-chloro-3-(1-methyl-1H-1,2,4-triazol-3-yl)thiophen-2-yl)-2-(2-oxo-3,4-dihydro-1,5-naphthyridin-1(2H)-yl)acetamide]: the IC50 in test [1], in test [2] and in test [3] was less than 100 nM throughout.
Regarding `CCc1n[nH]c(-c2c(Cl)csc2NC(=O)CN2C(=O)CCc3ncccc32)n1` [N-(4-chloro-3-(3-ethyl-1H-1,2,4-triazol-5-yl)thiophen-2-yl)-2-(2-oxo-3,4-dihydro-1,5-naphthyridin-1(2H)-yl)acetamide], the IC50 in test [1] was 100 to 10000 nM; in test [2], less than 100 nM; in test [3], less than 100 nM.
For `O=C(Cc1cccc2cnccc12)Nc1scnc1-c1cscn1` [N-(4,4′-bithiazol-5-yl)-2-(isoquinolin-5-yl)acetamide], the IC50 in test [1] was 100 to 10000 nM; in test [2] it was less than 100 nM; in test [3], less than 100 nM.
With `N#Cc1csc(NC(=O)Cn2c(=O)ccc3cc(C(F)(F)F)ccc32)c1-c1cscn1` [N-(4-cyano-3-(thiazol-4-yl)thiophen-2-yl)-2-(2-oxo-6-(trifluoromethyl)quinolin-1(2H)-yl)acetamide], the IC50 in test [1], in test [2] and in test [3] was less than 100 nM throughout.
As to `O=C(CN1C(=O)CCc2cnccc21)Nc1scc(Br)c1-c1ncn[nH]1` [N-(4-bromo-3-(1H-1,2,4-triazol-5-yl)thiophen-2-yl)-2-(2-oxo-3,4-dihydro-1,6-naphthyridin-1(2H)-yl)acetamide], the IC50 in test [1], in test [2] and in test [3] was less than 100 nM in each case.
For `CN(C)CCCn1cnc(-c2c(Cl)csc2NC(=O)Cn2c(=O)ccc3cc(C(F)(F)F)ccc32)n1` [N-(4-chloro-3-(1-(3-(dimethylamino)propyl)-1H-1,2,4-triazol-3-yl)thiophen-2-yl)-2-(2-oxo-6-(trifluoromethyl)quinolin-1(2H)-yl)acetamide], the IC50 in test [1], in test [2] and in test [3] was less than 100 nM in each case.
For the compound `O=C(CN1C(=O)CCc2ccc(Cl)cc21)Nc1scc(Br)c1-c1ncn[nH]1` [N-(4-bromo-3-(1H-1,2,4-triazol-5-yl)thiophen-2-yl)-2-(7-chloro-2-oxo-3,4-dihydroquinolin-1(2H)-yl)acetamide], the IC50 in test [1], in test [2] and in test [3] was less than 100 nM each time.
In the case of `COc1ccc(CC(=O)Nc2ccsc2-c2nnc(C(C)C)o2)cc1` [N-(2-(5-isopropyl-1,3,4-oxadiazol-2-yl)thiophen-3-yl)-2-(4-methoxyphenyl)acetamide], the results for the IC50 in test [1], in test [2] and in test [3] were greater than 50000 nM, greater than 10000 nM and greater than 10000 nM, respectively.
For the compound `O=C(Cn1c(=O)ccc2ccc(F)cc21)Nc1scc(Br)c1-c1ncn[nH]1` [N-(4-bromo-3-(1H-1,2,4-triazol-5-yl)thiophen-2-yl)-2-(7-fluoro-2-oxoquinolin-1(2H)-yl)acetamide], the IC50 in test [1], in test [2] and in test [3] was less than 100 nM in each case.
Take `N#Cc1csc(NC(=O)CN2C(=O)CCc3ccccc32)c1-c1ncn[nH]1` [N-(4-cyano-3-(1H-1,2,4-triazol-5-yl)thiophen-2-yl)-2-(2-oxo-3,4-dihydroquinolin-1(2H)-yl)acetamide]: the IC50 in test [1], in test [2] and in test [3] was less than 100 nM in each case.
Consider `O=C(CN1C(=O)CCc2ncccc21)Nc1scc(Br)c1-c1ncn[nH]1` [N-(4-bromo-3-(1H-1,2,4-triazol-5-yl)thiophen-2-yl)-2-(2-oxo-3,4-dihydro-1,5-naphthyridin-1(2H)-yl)acetamide], for which the IC50 in test [1], in test [2] and in test [3] was less than 100 nM each time.
Turning to `O=C(Cc1cccc2nccn12)Nc1scc(Br)c1-c1ncn[nH]1` [N-(4-bromo-3-(1H-1,2,4-triazol-5-yl)thiophen-2-yl)-2-(imidazo[1,2-a]pyridin-5-yl)acetamide], the results for the IC50 in test [1], in test [2] and in test [3] were 100 to 10000 nM, less than 100 nM and 100 to 10000 nM, respectively.
With `COc1ccc(CC(=O)Nc2ccsc2-n2cnc(C)c2)cc1` [2-(4-methoxyphenyl)-N-(2-(4-methyl-1H-imidazol-1-yl)thiophen-3-yl)acetamide], the concentration for half-maximal inhibition (IC50) in test [1], in test [2] and in test [3] was greater than 50000 nM in each case.
Take `COc1ccc(CC(=O)Nc2ccsc2-c2nc(C3CC3)n[nH]2)cc1` [N-(2-(3-cyclopropyl-1H-1,2,4-triazol-5-yl)thiophen-3-yl)-2-(4-methoxyphenyl)acetamide]: the IC50 in test [1], in test [2] and in test [3] was 100 to 10000 nM each time.
Consider `O=C(Cc1ccc(F)c2cnccc12)Nc1scc(Br)c1-c1ncn[nH]1` [N-(4-bromo-3-(1H-1,2,4-triazol-5-yl)thiophen-2-yl)-2-(8-fluoroisoquinolin-5-yl)acetamide], for which the IC50 in test [1], in test [2] and in test [3] was less than 100 nM throughout.
Turning to `O=C(CN1C(=O)CCc2cc(C(F)(F)F)ccc21)Nc1scc(Br)c1-c1ncn[nH]1` [N-(4-bromo-3-(1H-1,2,4-triazol-5-yl)thiophen-2-yl)-2-(2-oxo-6-(trifluoromethyl)-3,4-dihydroquinolin-1(2H)-yl)acetamide], the IC50 in test [1], in test [2] and in test [3] was less than 100 nM throughout.
Consider `O=C(Cc1cccc2cc(C(F)(F)F)cnc12)Nc1scc(Br)c1-c1nc[nH]n1` [N-(4-bromo-3-(1H-1,2,4-triazol-3-yl)thiophen-2-yl)-2-(3-(trifluoromethyl)quinolin-8-yl)acetamide], for which the IC50 in test [1], in test [2] and in test [3] was 100 to 10000 nM in each case.
Take `Cn1cnc(-c2c(Br)csc2NC(=O)CN2C(=O)CCc3ncccc32)n1` [N-(4-bromo-3-(1-methyl-1H-1,2,4-triazol-3-yl)thiophen-2-yl)-2-(2-oxo-3,4-dihydro-1,5-naphthyridin-1(2H)-yl)acetamide]: the IC50 in test [1], in test [2] and in test [3] was less than 100 nM throughout.

A word on the IC50: it is the midpoint of a concentration-inhibition curve. Low values mean inhibition by little substance, high ones a need for much substance.
